Assay results published in US20040121994A1, “Novel amides that activate soluble guanylate cyclase” (priority 2002, published 2004).

Biological target: T1, soluble guanylate cyclase (sGC), α1 and β1 subunits of guanylate cyclase expressed in Sf9 cells (Homo sapiens, UniProt Q02108+Q02153)
T1 construct: made in house; host or cells: Sf9 insect cells (baculovirus co-infection)
T1 sequence (Q02108 1-690): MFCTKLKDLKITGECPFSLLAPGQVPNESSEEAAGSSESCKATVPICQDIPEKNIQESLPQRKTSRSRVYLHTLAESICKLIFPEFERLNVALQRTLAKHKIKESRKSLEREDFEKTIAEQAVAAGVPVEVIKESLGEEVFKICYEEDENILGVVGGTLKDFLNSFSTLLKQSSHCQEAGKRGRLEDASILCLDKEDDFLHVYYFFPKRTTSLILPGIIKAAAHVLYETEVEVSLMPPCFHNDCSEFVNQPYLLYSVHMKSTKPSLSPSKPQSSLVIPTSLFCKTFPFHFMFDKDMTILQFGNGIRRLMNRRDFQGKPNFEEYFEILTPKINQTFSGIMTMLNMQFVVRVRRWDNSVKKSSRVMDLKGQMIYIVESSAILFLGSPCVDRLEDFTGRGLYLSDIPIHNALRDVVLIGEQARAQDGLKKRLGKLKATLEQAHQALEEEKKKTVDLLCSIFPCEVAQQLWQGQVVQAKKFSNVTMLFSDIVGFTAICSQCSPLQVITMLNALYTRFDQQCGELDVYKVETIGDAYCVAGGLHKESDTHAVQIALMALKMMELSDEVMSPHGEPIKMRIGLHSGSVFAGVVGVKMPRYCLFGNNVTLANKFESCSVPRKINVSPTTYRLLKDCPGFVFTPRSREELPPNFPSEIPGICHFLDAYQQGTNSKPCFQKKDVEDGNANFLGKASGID
T1 sequence (Q02153 1-619): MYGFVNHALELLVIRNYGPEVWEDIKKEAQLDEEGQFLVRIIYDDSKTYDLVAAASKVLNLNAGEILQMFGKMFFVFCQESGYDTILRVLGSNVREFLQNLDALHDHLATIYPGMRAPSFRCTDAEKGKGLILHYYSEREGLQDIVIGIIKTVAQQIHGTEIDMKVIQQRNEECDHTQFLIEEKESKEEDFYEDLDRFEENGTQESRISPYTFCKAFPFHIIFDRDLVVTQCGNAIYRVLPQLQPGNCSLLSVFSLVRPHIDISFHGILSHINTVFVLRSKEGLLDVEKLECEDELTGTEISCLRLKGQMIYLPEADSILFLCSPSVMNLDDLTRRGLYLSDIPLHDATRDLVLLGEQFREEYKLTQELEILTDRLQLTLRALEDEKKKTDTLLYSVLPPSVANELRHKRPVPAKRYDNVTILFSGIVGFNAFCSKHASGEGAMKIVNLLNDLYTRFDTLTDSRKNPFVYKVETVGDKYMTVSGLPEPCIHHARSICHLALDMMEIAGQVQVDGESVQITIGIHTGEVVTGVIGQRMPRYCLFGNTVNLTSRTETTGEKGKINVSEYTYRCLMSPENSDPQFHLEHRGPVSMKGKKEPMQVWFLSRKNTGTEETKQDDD
Test: Guanylate cyclase assay (formation of cyclic GMP from GTP)
Type: biochemical
Settings: for Mean activation at 100 μM: (activity of compound at 100 μM with 1 μM SNP)−(activity of compound at 100 μM)/(activity of SNP at 1 μM)−(basal activity of sGC); for Mean efficacy of compound combined with 1 μM of SNP, [%]: compound at 100 μM with 1 μM sodium nitro prusside (SNP); for Mean efficacy of compound combined with 1 μM of SNP, [%] / Emax at 100 µM: normalized with the activity of 100 μM YC-1 (without SNP) as 100%; for Emax at 100 µM: compound at 100 μM without SNP, read-out: Mean basal efficacy of compound alone at 100 μM, [%]
Description: Sf9 cells were cultured in Sf-90011 medium supplemented with 10% (v/v) fetal calf serum at 28° C. to give a count of 6×10^5 cells/ml. The cells were then infected with a mixture of the virus stocks for the α1 and β1 subunits of guanylate cyclase at a multiplicity of infection of 0.1 pfu/cell. The cells were harvested 72 hours after infection and were pelleted by centrifugation. The resulting cell pellets were homogenized with Polytron homogenizer in 3 volumes of 20 mM Tris-HCl (pH 7.6) containing 1 mM EDTA, 5 mM dithiothreitol, 90 mM NaCl, 10% glycerol, and protease inhibitors mix (Roche Molecular Biochemicals). The homogenate was centrifuged at 50,000×g for 60 minutes and the supernatant was aliquotted and stored at −80° C.
Compounds of the present invention were dissolved in DMSO to make 100 mM and saved as stocks at −20° C. When compounds were tested, prepared 10-fold concentrated solutions with 10% DMSO. Then added 10 μl of 10-fold concentrated compound solutions to the reaction mixture of total 100 μl.
Guanylate cyclase activity was measured by the formation of cyclic GMP from GTP in a total volume of 100 μl. Guanylate cyclase-expressed Sf9 cell high-speed supernatant was used as an enzyme source for the assay. The reaction mixture containing 0.1 μl enzyme (Sf9 high-speed sup), compound solution, 50 mM Tris-HCl (pH 7.6), 4 mM MgCl2, 0.5 mM IBMX, 15 mM creatine phosphate, 20 μg creatine phosphokinase, 0.1% BSA and 1 mM GTP was incubated at 37° C. for 15 minutes. After the reaction, 0.9 ml of 50 mM sodium acetate buffer (pH 5.8) was added followed by boiling for 3 minutes to stop the reaction. The solution was centrifuged at 3000 rpm for 15 minutes at room temperature and cyclic GMP in 20 μl of the resulting supernatant was measured according to the protocol of Amersham cyclic GMP enzymeimmunoassay system (purchased from Sigma, catalogue number RPN 226).
Compounds of the present invention were tested at 100 μM with and without 1 μM sodium nitro prusside (SNP). 1-Benzyl-3-hydroxymethyl-2-furylindazole (YC-1) was included as a standard for each assay. The data was normalized with the activity of 100 μM YC-1 (without SNP) as 100%. Mean basal efficacy, in Table 1, was expressed as a percentage of 100 μM YC-1 (without SNP).
The mean activation, in Table 1, was calculated based on the formula: (activity of compound of the present invention at 100 μM with 1 μM SNP)−(activity of compound of the present invention at 100 μM)/(activity of SNP at 1 μM)−(basal activity of sGC).

| Structure (SMILES) | Mean activation at 100 μM | Mean efficacy of compound combined with 1 μM of SNP, [%] | Emax at 100 µM [%] |
| --- | --- | --- | --- |
| CC(CCCC(C)(C)O)NC(=O)/C=C/c1ccccc1Sc1ccc(Cl)cc1 (stereo not drawn) [Example 31, (2E)-3-{2-[(4-chlorophenyl)thio]phenyl}-N-(5-hydroxy-1,5-dimethylhexyl)acrylamide] | 3.7 | 187 | 93 |
| CCNC(=O)/C=C/c1ccccc1Sc1ccc(Cl)cc1 [Example 32, (2E)-3-{2-[(4-chlorophenyl)thio]phenyl}-N-ethylacrylamide] | 10.5 | 78 | 27 |
| CCCCNC(=O)/C=C/c1ccccc1Sc1ccc(Cl)cc1 [Example 33, (2E)-N-butyl-3-{2-[(4-chlorophenyl)thio]phenyl}acrylamide] | 6.9 | 38 | 7 |
| O=C(/C=C/c1ccccc1Sc1ccc(Cl)cc1)NCCCCO [Example 34, (2E)-3-{2-[(4-chlorophenyl)thio]phenyl}-N-(4-hydroxybutyl)acrylamide] | 6.9 | 219 | 113 |
| O=C(/C=C/c1ccccc1Sc1ccc(Cl)cc1)NCCCCCO [Example 35, (2E)-3-{2-[(4-chlorophenyl)thio]phenyl}-N-(5-hydroxypentyl)acrylamide] | 6.3 | 228 | 49 |
| Cc1ccc(Sc2ccccc2/C=C/C(=O)NCCCCO)cc1 [Example 36, (2E)-N-(4-hydroxybutyl)-3-{2-[(4-methylphenyl)thio]phenyl}acrylamide] | 9.2 | 212 | 66 |
| CC(O)CNC(=O)/C=C/c1ccccc1Sc1ccc(Cl)cc1 (stereo not drawn) [Example 37, (2E)-3-{2-[(4-chlorophenyl)thio]phenyl}-N-(2-hydroxypropyl)acrylamide] | 30.6 | 405 | 70 |
| CC(O)CCNC(=O)/C=C/c1ccccc1Sc1ccc(Cl)cc1 (stereo not drawn) [Example 38, (2E)-3-{2-[(4-chlorophenyl)thio]phenyl}-N-(3-hydroxybutyl)acrylamide] | 19.0 | 259 | 60 |
| CCC(O)CNC(=O)/C=C/c1ccccc1Sc1ccc(Cl)cc1 (stereo not drawn) [Example 39, (2E)-3-{2-[(4-chlorophenyl)thio]phenyl}-N-(2-hydroxybutyl)acrylamide] | 19.3 | 305 | 73 |
| O=C(/C=C/c1ccccc1Sc1ccc(Cl)cc1)NC1CCCCC1O (stereo not drawn) [Example 40, (2E)-3-{2-[(4-chlorophenyl)thio]phenyl}-N-(2-hydroxycyclohexyl)acrylamide] | 6.3 | 366 | 100 |
| O=C(/C=C/c1c(F)cccc1Sc1ccc(Cl)cc1)NCCCCO [Example 41, (2E)-3-{2-[(4-chlorophenyl)thio]-6-fluorophenyl}-N-(4-hydroxybutyl)acrylamide] | 3.8 | 69 | 5 |
| Cc1ccc(Sc2ccccc2/C=C/C(=O)NC2CCC(O)CC2)cc1 (stereo not drawn) [Example 42, (2E)-N-(4-hydroxycyclohexyl)-3-{2-[(4-methylphenyl)thio]phenyl}acrylamide] | 4.8 | 58 | 14 |
| COc1ccc(Sc2ccc(C)cc2)c(/C=C/C(=O)NC2CCC(O)CC2)c1 (stereo not drawn) [Example 44, (2E)-N-(4-hydroxycyclohexyl)-3-{5-methoxy-2-[(4-methylphenyl)thio]phenyl}acrylamide] | 3.5 | 89 | 36 |
| O=C(/C=C/c1ccccc1Sc1ccccc1)NC1CCCCC1O (stereo not drawn) [Example 46, (2E)-N-(2-hydroxycyclohexyl)-3-[2-(phenylthio)phenyl]acrylamide] | 4.3 | 121 | 54 |
| Cc1ccc(Sc2ccccc2/C=C/C(=O)NC2CCCCC2O)cc1 (stereo not drawn) [Example 47, (2E)-N-(2-hydroxycyclohexyl)-3-{2-[(4-methylphenyl)thio]phenyl}acrylamide] | 2.8 | 44 | 16 |
| COc1cccc(Sc2ccccc2/C=C/C(=O)NC2CCCCC2O)c1 (stereo not drawn) [Example 48, (2E)-N-(2-hydroxycyclohexyl)-3-{2-[(3-methoxyphenyl)thio]phenyl}acrylamide] | 4.6 | 102 | 20 |
| COc1ccc(Sc2ccccc2/C=C/C(=O)NC2CCCCC2O)cc1 (stereo not drawn) [Example 49, (2E)-N-(2-hydroxycyclohexyl)-3-{2-[(4-methoxyphenyl)thio]phenyl}acrylamide] | 3.7 | 79 | 15 |
